Series [1] concerns most medically relevant test strains of yeast. Set-up: method as in PMID 27088128, PMID 27645246. The settings on record: cited from earlier work.
The test system of the next series is HaCaT keratinocytes. The series is described as follows: In vitro cytotoxicity assay (CellTiter viability) in HaCaT keratinocytes. The settings on record: 48 h treatment. In kind it is cell-based, human. As for the experimental part: (§1) All of the samples were prepared on the day of the assays. Each product/stock solution was diluted with CfM or CAM until the desired concentration ranges were obtained for the in vitro cytotoxicity assessments, based on OECD recommendations (i.e., with serial dilutions). The tested CLX- and HOCl-based biocides were used as received, apart from dilution with cell culture medium.
(§2) To perform the cytotoxicity assays, WCB II vials of primary cells and vials of control cell lines (i.e., HaCaT keratinocytes) were thawed and were expanded to confluency. The cells were then harvested and seeded in 24-well plates at densities of 3 × 10^3 and 6 × 10^3 cells/well. The cultures were maintained for 7 days as described previously. The test items were then dispensed in the wells of the culture plates, following dilution in CfM or CAM. […] Regarding the AR-12 antifungal compound, cytotoxicity was assessed for a concentration range of 0.27–139 µM. […]
(§3) After 48 h of cell treatment with the test items, the solutions were removed and a 10% solution of CellTiter® (Promega, Madison, WI, USA) in CfM or CAM was added in every well for assessment of cellular viability. […] The solutions were transferred to a 96-well plate and were analyzed on a Varioskan LUX 3020 spectrophotometer (ThermoFisher Scientific, Waltham, MA, USA) at 490 nm with agitation. […]

The subject of series [2] is primary dermal fibroblasts. The experiment in a line: In vitro cytotoxicity assay (CellTiter viability) in polydactyly-derived primary dermal fibroblasts. In kind it is cell-based, human. On the procedure:
All of the samples were prepared on the day of the assays. Each product/stock solution was diluted with CfM or CAM until the desired concentration ranges were obtained for the in vitro cytotoxicity assessments, based on OECD recommendations (i.e., with serial dilutions). The tested CLX- and HOCl-based biocides were used as received, apart from dilution with cell culture medium. To perform the cytotoxicity assays, WCB II vials of primary cells and vials of control cell lines (i.e., HaCaT keratinocytes) were thawed and were expanded to confluency. The cells were then harvested and seeded in 24-well plates at densities of 3 × 10^3 and 6 × 10^3 cells/well. The cultures were maintained for 7 days as described previously. The test items were then dispensed in the wells of the culture plates, following dilution in CfM or CAM. The Vashe® source was tested for cytotoxicity at final HOCl concentrations of 786-6290 μM. The Brio® source was tested for cytotoxicity at final HOCl concentrations of 596-4766 μM. The CLX source was tested for cytotoxicity at final concentrations of 0.2-1978 μM. […] The solutions were transferred to a 96-well plate and were analyzed on a Varioskan LUX 3020 spectrophotometer (ThermoFisher Scientific, Waltham, MA, USA) at 490 nm with agitation. […]

In series [3] the test system is adipose-derived stem cells (ASC). The experiment in a line: In vitro cytotoxicity assay (CellTiter viability) in polydactyly-derived ASCs. The series is classed as cell-based, human. On the procedure:
as §1, §2, §3

The test system of series [4] is cultured cells (HaCaT keratinocytes, primary dermal fibroblasts, ASCs). The experiment in a line: In vitro cytotoxicity model overall (cell type not given). The series is classed as cell-based, human. As for the experimental part:
All of the samples were prepared on the day of the assays. Each product/stock solution was diluted with CfM or CAM until the desired concentration ranges were obtained for the in vitro cytotoxicity assessments, based on OECD recommendations (i.e., with serial dilutions). The tested CLX- and HOCl-based biocides were used as received, apart from dilution with cell culture medium. To perform the cytotoxicity assays, WCB II vials of primary cells and vials of control cell lines (i.e., HaCaT keratinocytes) were thawed and were expanded to confluency. The cells were then harvested and seeded in 24-well plates at densities of 3 × 10^3 and 6 × 10^3 cells/well. The cultures were maintained for 7 days as described previously. The test items were then dispensed in the wells of the culture plates, following dilution in CfM or CAM. The Vashe® source was tested for cytotoxicity at final HOCl concentrations of 786-6290 μM. The Brio® source was tested for cytotoxicity at final HOCl concentrations of 596-4766 μM. The CLX source was tested for cytotoxicity at final concentrations of 0.2-1978 μM. […] The retained test item experimental concentrations were selected based on the OECD […] guideline and on high-throughput screening principles. After 48 h of cell treatment with the test items, the solutions were removed and a 10% solution of CellTiter® (Promega, Madison, WI, USA) in CfM or CAM was added in every well for assessment of cellular viability. The plates were then placed in the incubator for 90 min. The solutions were transferred to a 96-well plate and were analyzed on a Varioskan LUX 3020 spectrophotometer (ThermoFisher Scientific, Waltham, MA, USA) at 490 nm with agitation. Following the cytotoxicity model validation in 24-well plates, the same procedure was used for optimization and upscaling in 96-well plates. The culture plates were seeded with 5 × 10^3 cells/well (i.e., for primary cells) and 10^4 cells/well (i.e., for HaCaT keratinocytes) in a CfM volume of 100 μL per well. […]

Values after ≈ are worked out from the molar mass of the structure shown.

Data on three compounds can be found in publication PMC11544888, “Sustainable Primary Cell Banking for Topical Compound Cytotoxicity Assays: Protocol Validation on Novel Biocides and Antifungals for Optimized Burn Wound Care” (European Burn Journal, 2024).

With `NCC(=O)Nc1ccc(-n2nc(C(F)(F)F)cc2-c2ccc3c(ccc4ccccc43)c2)cc1` [AR-12], the MIC in series [1] is given as 8 µM (≈ 3.68 µg/mL). Moreover, the IC50 in the series with HaCaT keratinocytes was determined as 9.96 ± 0.35 µM; in series [2] (48 h treatment, CellTiter viability) it was 10.7 ± 0.27 µM. Besides, the cytotoxicity values in series [2] and in series [3] was 4 to 8 µg/mL in each case.
In the case of `[H]/N=C(\N/C(=N/[H])NCCCCCCNC(=N)NC(=N)Nc1ccc(Cl)cc1)Nc1ccc(Cl)cc1` [CLX, chlorhexidine], the “dilution needed to avoid toxicity in cultured cells” value in series [4] (human, 48 h) was 10- and 100.
On to `OCl` [HOCl, hypochlorous acid], for which the “comparative in vitro cytotoxicity” value in series [4] (Figures 4-6) is “less toxicity than CLX”. The “dose showing in vitro cytotoxicity” value in series [4] (in vitro data gathered herein, 50 times lower than 100–200 ppm in-use doses) worked out at 4 µg/mL.

What is called MIC is the smallest concentration in the dilution series that meets the test's criterion for growth inhibition. By IC50 is commonly meant the concentration needed to halve the response being measured. Low readings indicate greater potency, high ones weaker potency.
